According to ChEMBL document CHEMBL5131484, “Design and synthesis of adamantane-1-carbonyl thiourea derivatives as potent and selective inhibitors of h-P2X4 and h-P2X7 receptors: An Emerging therapeutic tool for treatment of inflammation and neurological disorders” (Eur J Med Chem, 2022):

What was measured:
[1] = Cytotoxicity against human 1321N1 cells assessed as reduction in cell viability at 50 uM incubated for 24 hrs by MTT assay relative to control; format: functional
[2] = Cytotoxicity against human HEK293 cells assessed as reduction in cell viability at 50 uM incubated for 24 hrs by MTT assay relative to control; format: toxicity, cell-based; conditions: read-out: INH
HeLa = assay: Cytotoxicity against human HeLa cells assessed as reduction in cell viability at 50 uM incubated for 24 hrs by MTT assay relative to control; format: functional
[3] = biological target: T1, P2X purinoceptor 4 (Homo sapiens) (UniProt Q99571); assay: Antagonist activity at human P2X4 receptor expressed in human 1321N1 cells assessed as reduction in intracellular Ca2+ influx incubated for 30 mins by Fura-2 AM based fluorescence assay relative to control; format: cell-based
T1 sequence (whole entry): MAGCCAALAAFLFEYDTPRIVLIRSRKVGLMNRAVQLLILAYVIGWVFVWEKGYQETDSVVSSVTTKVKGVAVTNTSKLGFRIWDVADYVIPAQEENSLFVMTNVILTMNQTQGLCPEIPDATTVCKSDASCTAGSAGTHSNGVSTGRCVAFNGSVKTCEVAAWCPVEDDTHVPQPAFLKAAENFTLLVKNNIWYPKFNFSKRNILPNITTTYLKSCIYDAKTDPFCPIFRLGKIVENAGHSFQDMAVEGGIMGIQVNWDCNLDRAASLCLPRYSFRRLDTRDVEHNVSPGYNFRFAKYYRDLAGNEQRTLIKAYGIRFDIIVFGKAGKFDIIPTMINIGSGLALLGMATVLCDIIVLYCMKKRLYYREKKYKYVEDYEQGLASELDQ

P2X purinoceptor 5 [4] = biological target: T2, P2X purinoceptor 5 (Homo sapiens, UniProt Q93086); assay: Antagonist activity at human P2X5 receptor expressed in human 1321N1 cells assessed as reduction in intracellular Ca2+ influx incubated for 30 mins by Fura-2 AM based fluorescence assay relative to control; format: cell-based
[5] = biological target: T3, P2X purinoceptor 7 (Homo sapiens) (UniProt Q99572); assay: Antagonist activity at human P2X7 receptor expressed in human 1321N1 cells assessed as reduction in intracellular Ca2+ influx incubated for 30 mins by Fura-2 AM based fluorescence assay relative to control; format: cell-based
T3 sequence (whole entry): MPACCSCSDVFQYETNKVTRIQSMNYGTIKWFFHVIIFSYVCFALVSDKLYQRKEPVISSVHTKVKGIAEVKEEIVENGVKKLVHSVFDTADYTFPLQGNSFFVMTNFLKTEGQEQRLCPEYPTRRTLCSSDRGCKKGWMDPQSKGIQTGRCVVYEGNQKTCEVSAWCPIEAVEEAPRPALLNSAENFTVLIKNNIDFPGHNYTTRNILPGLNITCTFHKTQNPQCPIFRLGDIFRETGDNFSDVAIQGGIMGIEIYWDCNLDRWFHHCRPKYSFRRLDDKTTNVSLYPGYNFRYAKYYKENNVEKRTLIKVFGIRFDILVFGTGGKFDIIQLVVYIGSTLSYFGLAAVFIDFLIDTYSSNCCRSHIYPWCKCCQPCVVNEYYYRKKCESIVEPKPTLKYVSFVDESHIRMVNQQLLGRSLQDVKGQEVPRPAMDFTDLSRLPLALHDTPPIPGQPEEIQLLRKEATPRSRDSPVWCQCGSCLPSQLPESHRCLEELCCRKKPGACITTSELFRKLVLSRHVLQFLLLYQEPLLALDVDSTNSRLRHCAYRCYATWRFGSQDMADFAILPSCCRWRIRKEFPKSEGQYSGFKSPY

P2X purinoceptor 4 = biological target: T4, P2X purinoceptor 4 (Homo sapiens, UniProt Q99571); assay: Antagonist activity at human P2X4 receptor expressed in human 1321N1 cells assessed as reduction in intracellular Ca2+ influx incubated for 30 mins by Fura-2 AM based fluorescence assay; format: cell-based
T4 sequence (Q99571 whole entry): T1 sequence (whole entry)

P2X purinoceptor 7 [6] = biological target: T5, P2X purinoceptor 7 (Homo sapiens, UniProt Q99572); assay: Antagonist activity at human P2X7 receptor expressed in human 1321N1 cells assessed as reduction in intracellular Ca2+ influx incubated for 30 mins by Fura-2 AM based fluorescence assay; format: cell-based
T5 sequence (Q99572 whole entry): T3 sequence (whole entry)

[7] = biological target: T6, P2X purinoceptor 2 (Homo sapiens) (UniProt Q9UBL9); assay: Antagonist activity at human P2X2 receptor expressed in human 1321N1 cells assessed as reduction in intracellular Ca2+ influx incubated for 30 mins by Fura-2 AM based fluorescence assay relative to control; format: cell-based
T6 sequence (whole entry): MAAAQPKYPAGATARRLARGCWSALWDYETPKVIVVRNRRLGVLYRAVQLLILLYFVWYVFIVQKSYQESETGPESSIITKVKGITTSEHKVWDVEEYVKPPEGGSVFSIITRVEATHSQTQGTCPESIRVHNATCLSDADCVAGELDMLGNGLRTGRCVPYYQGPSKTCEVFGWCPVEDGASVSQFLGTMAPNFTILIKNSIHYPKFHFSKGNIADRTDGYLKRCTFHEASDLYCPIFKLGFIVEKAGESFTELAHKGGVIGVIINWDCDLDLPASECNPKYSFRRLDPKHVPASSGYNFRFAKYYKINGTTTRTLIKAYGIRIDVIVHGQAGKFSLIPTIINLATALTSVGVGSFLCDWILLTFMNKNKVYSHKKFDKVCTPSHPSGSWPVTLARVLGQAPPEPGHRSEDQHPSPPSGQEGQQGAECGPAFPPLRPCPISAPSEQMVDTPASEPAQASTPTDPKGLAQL

[8] = biological target: T3, P2X purinoceptor 7 (Homo sapiens); assay: (§1) Antagonist activity at human P2X7 receptor expressed in human 1321N1 cells assessed as reduction in ethidium bromide dye uptake at 20 uM preincubated for 15 mins followed by BzATP addition and measured after 30 mins by Ethidium bromide dye based fluorescence plate reader analysis relative to control; format: cell-based; conditions: filed as antagonist, time 45.0 min
P2X purinoceptor 7 [9] = biological target: T5, P2X purinoceptor 7; assay: Antagonist activity at human P2X7 receptor expressed in human 1321N1 cells assessed as reduction in ethidium bromide dye uptake preincubated for 15 mins followed by BzATP addition and measured after 30 mins by Ethidium bromide dye based fluorescence plate reader analysis; format: cell-based
P2X purinoceptor 5 [10] = biological target: T2, P2X purinoceptor 5; assay: Antagonist activity at human P2X5 receptor expressed in human 1321N1 cells assessed as reduction in intracellular Ca2+ influx incubated for 30 mins by Fura-2 AM based fluorescence assay; format: cell-based
[11] = biological target: T3, P2X purinoceptor 7 (Homo sapiens); assay: Negative allosteric modulation activity at human P2X7 receptor expressed in human 1321N1 cells assessed as ATP induced calcium response by measuring maximal ATP efficacy at 40 nM relative to control; format: cell-based; conditions: filed as negative allosteric modulator
[12] = biological target: T3, P2X purinoceptor 7 (Homo sapiens); assay: Negative allosteric modulation activity at human P2X7 receptor expressed in human 1321N1 cells assessed as ATP induced calcium response by measuring maximal ATP efficacy at 100 nM relative to control; format: cell-based; conditions: filed as negative allosteric modulator
[13] = biological target: T3, P2X purinoceptor 7 (Homo sapiens); assay: Negative allosteric modulation activity at human P2X7 receptor expressed in human 1321N1 cells assessed as ATP induced calcium response by measuring maximal ATP efficacy at 200 nM relative to control; format: cell-based
[14] = biological target: T3, P2X purinoceptor 7 (Homo sapiens); assay: as §1, with “Negative allosteric modulation” for “Antagonist”; format: cell-based; conditions: filed as negative allosteric modulator, time 45.0 min
P2X purinoceptor 7 [15] = biological target: T5, P2X purinoceptor 7; assay: Negative allosteric modulation activity at human P2X7 receptor expressed in human 1321N1 cells assessed as reduction in ethidium bromide dye uptake preincubated for 15 mins followed by BzATP addition and measured after 30 mins by Ethidium bromide dye based fluorescence plate reader analysis; format: cell-based
[16] = biological target: T6, P2X purinoceptor 2 (Homo sapiens); assay: Negative allosteric modulation activity at human P2X2 receptor expressed in human 1321N1 cells assessed as reduction in intracellular Ca2+ influx incubated for 30 mins by Fura-2 AM based fluorescence assay relative to control; format: cell-based
[17] = biological target: T1, P2X purinoceptor 4 (Homo sapiens); assay: Negative allosteric modulation activity at human P2X4 receptor expressed in human 1321N1 cells assessed as reduction in intracellular Ca2+ influx incubated for 30 mins by Fura-2 AM based fluorescence assay relative to control; format: cell-based
P2X purinoceptor 5 [18] = biological target: T2, P2X purinoceptor 5; assay: Negative allosteric modulation activity at human P2X5 receptor expressed in human 1321N1 cells assessed as reduction in intracellular Ca2+ influx incubated for 30 mins by Fura-2 AM based fluorescence assay relative to control; format: cell-based

T2 sequence (Q93086 whole entry): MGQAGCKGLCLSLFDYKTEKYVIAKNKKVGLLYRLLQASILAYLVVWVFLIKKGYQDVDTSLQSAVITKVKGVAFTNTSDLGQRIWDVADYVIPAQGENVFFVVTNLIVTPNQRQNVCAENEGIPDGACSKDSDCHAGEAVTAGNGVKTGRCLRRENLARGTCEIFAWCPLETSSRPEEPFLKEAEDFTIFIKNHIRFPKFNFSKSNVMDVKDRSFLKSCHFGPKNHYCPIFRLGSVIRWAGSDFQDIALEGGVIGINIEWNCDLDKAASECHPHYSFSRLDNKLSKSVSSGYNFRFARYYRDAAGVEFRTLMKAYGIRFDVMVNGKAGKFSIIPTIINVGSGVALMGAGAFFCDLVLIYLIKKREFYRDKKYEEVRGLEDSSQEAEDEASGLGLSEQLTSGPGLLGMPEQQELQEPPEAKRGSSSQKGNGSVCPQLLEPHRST

inhibition [3] [%]	inhibition [5] [%]	inhibition (P2X purinoceptor 5 [4]) [%]	inhibition [7] [%]	Compound	inhibition at 50 µM [1] [%]	cytotoxicity at 24 h, 50 µM [2] [%]	inhibition at 50 µM (HeLa) [%]	further results
38	15			COc1cccc(NC(=S)NC(=O)C23CC4CC(CC(C4)C2)C3)c1	6.53	13.2	7.21	inhibition (P2X purinoceptor 5 [4]; filed as antagonist): 45%
32	0	25		COc1ccc(NC(=S)NC(=O)C23CC4CC(CC(C4)C2)C3)cc1	4.56	10.6	8.01	
		25	13	O=C(NC(=S)Nc1cccnc1Cl)C12CC3CC(CC(C3)C1)C2	11.4	4.95	5.21	Emax [8]: 63%; IC50 (P2X purinoceptor 7 [9]): 0.155 µM
33		26	38	O=C(NC(=S)Nc1ccc(O)cc1)C12CC3CC(CC(C3)C1)C2	7.21	3.02	8.66	Emax [8]: 68%; IC50 (P2X purinoceptor 7 [9]): 1.26 µM
35	18	16	22	Cc1cc(Br)ccc1NC(=S)NC(=O)C12CC3CC(CC(C3)C1)C2	2.2	7.02	4.1	
	11	16		O=C(NC(=S)Nc1cc(Br)ccc1Br)C12CC3CC(CC(C3)C1)C2	7.43	10.7	4.15	IC50 (P2X purinoceptor 4): 8.34 µM; inhibition ([7]; filed as antagonist): 41%
			33	O=C(NC(=S)Nc1ccccc1O)C12CC3CC(CC(C3)C1)C2	10.3	4.22	8.6	inhibition (P2X purinoceptor 5 [4]; filed as antagonist): 41%
21			35	O=C(NC(=S)Nc1ccc(Br)cc1)C12CC3CC(CC(C3)C1)C2	5.4	13.7	7.19	inhibition (P2X purinoceptor 5 [4]; filed as antagonist): 42%
36	19		33	O=C(NC(=S)Nc1cccc(O)c1)C12CC3CC(CC(C3)C1)C2	5.67	6.95	11	inhibition (P2X purinoceptor 5 [4]; filed as antagonist): 44%

Further lines, the compound ahead of its results:

Compound	inhibition [3] [%]	inhibition [5] [%]	inhibition (P2X purinoceptor 5 [4]) [%]	inhibition [7] [%]	inhibition at 50 µM [1] [%]	cytotoxicity at 24 h, 50 µM [2] [%]	inhibition at 50 µM (HeLa) [%]	further results
O=C(NC(=S)Nc1cc(Br)cc(C(F)(F)F)c1)C12CC3CC(CC(C3)C1)C2			20	5	5.37	6.85	11.9	IC50 (P2X purinoceptor 4): 4.53 µM; IC50 (P2X purinoceptor 7 [6]): 4.02 µM
O=C(NC(=S)Nc1cc(Cl)c(O)c(Cl)c1)C12CC3CC(CC(C3)C1)C2					6.18	1.06	5.4	IC50 (P2X purinoceptor 5 [10]): 12.3 µM
O=C(NC(=S)Nc1cc([N+](=O)[O-])ccc1Cl)C12CC3CC(CC(C3)C1)C2			32		10.4	6.31	8.66	
NS(=O)(=O)c1ccccc1NC(=S)NC(=O)C12CC3CC(CC(C3)C1)C2				18	12.9	3.77	9.5	IC50 (P2X purinoceptor 4): 4.19 µM; IC50 (P2X purinoceptor 7 [6]): 0.699 µM; inhibition (P2X purinoceptor 5 [4]; filed as antagonist): 43%; Emax [8]: 58%; IC50 (P2X purinoceptor 7 [9]): 0.796 µM
COc1ccc(NC(=S)NC(=O)C23CC4CC(CC(C4)C2)C3)cc1OC					13.5	7.2	14.3	IC50 (P2X purinoceptor 5 [10]): 16.5 µM
O=C(O)C12CC3CC(CC(C3)C1)C2	20	11	15	12				
CN(C)CCCNC(=S)NC(=O)C12CC3CC(CC(C3)C1)C2	0	10	5	2	5.45	10.4	7.21	
O=C(NC(=S)Nc1cccc2cccnc12)C12CC3CC(CC(C3)C1)C2					9.12	5.05	6.22	Emax [11]: 78%; Emax [12]: 59%; Emax [13]: 31%; Emax [14]: 42%; IC50 (P2X purinoceptor 7 [15]): 0.068 µM; inhibition [16]: 15%; inhibition [17]: 25%; inhibition (P2X purinoceptor 5 [18]): 32%
Cc1ccc(NC(=S)NC(=O)C23CC4CC(CC(C4)C2)C3)c(Br)c1					7.29	9.46	15.4	IC50 (P2X purinoceptor 5 [10]): 9.04 µM
CC(C)c1cc(Br)c(NC(=O)Nc2cccnc2)c(Br)c1					20.2	2.85	9.12	
Cc1ccc(C(=O)Nc2ccc(S(=O)(=O)O)c3cc(S(=O)(=O)O)cc(S(=O)(=O)O)c23)cc1NC(=O)c1cccc(NC(=O)Nc2cccc(C(=O)Nc3cc(C(=O)Nc4ccc(S(=O)(=O)O)c5cc(S(=O)(=O)O)cc(S(=O)(=O)O)c45)ccc3C)c2)c1 [SURAMIN]					30.6	48	28.7	
